Results on 2 compounds are retold here after ChEMBL document CHEMBL4402608 (J Med Chem, 2020).

The target of series [1] is T1, Alpha-1D adrenergic receptor (Homo sapiens, UniProt P25100).
T1 sequence (P25100 whole entry): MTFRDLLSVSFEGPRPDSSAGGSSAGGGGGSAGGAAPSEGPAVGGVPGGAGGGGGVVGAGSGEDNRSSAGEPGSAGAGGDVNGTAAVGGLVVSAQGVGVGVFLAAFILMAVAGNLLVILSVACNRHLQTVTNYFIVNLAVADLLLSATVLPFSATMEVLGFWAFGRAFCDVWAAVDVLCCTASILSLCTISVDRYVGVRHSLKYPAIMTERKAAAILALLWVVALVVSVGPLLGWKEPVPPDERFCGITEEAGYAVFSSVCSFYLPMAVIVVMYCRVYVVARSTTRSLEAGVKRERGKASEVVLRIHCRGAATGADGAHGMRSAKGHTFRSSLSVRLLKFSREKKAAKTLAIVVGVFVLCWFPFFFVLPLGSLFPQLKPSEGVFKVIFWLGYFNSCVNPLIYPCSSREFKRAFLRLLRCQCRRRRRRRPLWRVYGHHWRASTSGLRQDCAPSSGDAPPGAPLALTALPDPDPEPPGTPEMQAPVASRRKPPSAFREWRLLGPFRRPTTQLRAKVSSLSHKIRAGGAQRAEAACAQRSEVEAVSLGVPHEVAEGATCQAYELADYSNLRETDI
As to the kind of experiment: Displacement of [3H]-prazosin from recombinant human alpha1D adrenergic receptor measured after 90 mins by microbeta scintillation counting method. (In a radioligand displacement assay an active substance lowers the binding of a labelled ligand.)

Series [2] concerns the target Muscarinic acetylcholine receptor M5 (Homo sapiens, UniProt P08912). As to the kind of experiment: Displacement of [3H]-QNB/[3H]-NMS from human muscarinic M5 receptor expressed in stable CHO cell membranes after 90 mins by microbeta scintillation counting method.
Series [3] deals with Mu-type opioid receptor (Homo sapiens, UniProt P35372). The series can be described thus: Displacement of [3H]-DAMGO from recombinant human MOR stably expressed in HEK cell membranes measured after 90 mins by microbeta scintillation counting method.
The target in series [4] is 5HT1A receptor (Homo sapiens, UniProt P08908). As to the kind of experiment: Displacement of [3H]-Way100635 from recombinant human 5HT1A receptor stably expressed in CHO cell membranes at 10 uM measured after 90 mins by microbeta scintillation counting method relative to control. Conditions: probe [3H]-Way100635; call rule not given here.
In series [5] the target is 5HT2A receptor (Homo sapiens, UniProt P28223). As to the kind of experiment: Displacement of [3H]-Ketanserin from 5HT2A receptor (unknown origin) at 10 uM measured after 90 mins by microbeta scintillation counting method relative to control. Conditions: probe [3H]-Ketanserin.
Series [6] has as its target 5HT2B receptor (Homo sapiens, UniProt P41595). The series can be described thus: Displacement of [3H]-LSD from recombinant human 5HT2B receptor stably expressed in HEK cell membranes at 10 uM measured after 90 mins by microbeta scintillation counting method relative to control. Particulars: probe [3H]-LSD.
The target in series [7] is 5HT3 receptor (5-hydroxytryptamine receptor 3A) (Homo sapiens, UniProt P46098). As to the kind of experiment: Displacement of [3H]GR65630 from recombinant human 5HT3 receptor transiently expressed in HEKT cell membranes at 10 uM measured after 90 mins by microbeta scintillation counting method relative to control. Conditions: probe [3H]GR65630.
Series [8] has as its target 5HT7A receptor (Homo sapiens, UniProt P34969). The series can be described thus: Displacement of [3H]-LSD from recombinant human 5HT7A receptor stably expressed in HEK cell membranes at 10 uM measured after 90 mins by microbeta scintillation counting method relative to control. Particulars: probe [3H]-LSD.
The target in series [9] is T1, Alpha-1D adrenergic receptor. The series can be described thus: Displacement of [3H]-prazosin from recombinant human alpha1D adrenergic receptor at 10 uM measured after 90 mins by microbeta scintillation counting method relative to control. Conditions: probe [3H]-prazosin.
In series [10] the target is dopamine D4 receptor (Homo sapiens, UniProt P21917). The series can be described thus: Displacement of [3H]-N-methylspiperone from recombinant human D4 receptor stably expressed in HEK cell membranes at 10 uM measured after 90 mins by microbeta scintillation counting method relative to control. Conditions: probe [3H]-N-methylspiperone.
For series [11], the target named is dopamine transporter (DAT) (Homo sapiens, UniProt Q01959). As to the kind of experiment: Displacement of [3H]-Win35428 from human DAT expressed in stable HEK cell membranes at 10 uM after 90 mins by microbeta scintillation counting method relative to control. Particulars: stable HEK cell membranes expressing human DAT, probe [3H]-Win35428.
Series [12] addresses delta opioid receptor (DOR) (Homo sapiens, UniProt P41143). As to the kind of experiment: Displacement of [3H]-DADLE from recombinant human DOR stably expressed in HEK cell membranes at 10 uM measured after 90 mins by microbeta scintillation counting method relative to control. Conditions: HEK cell membranes stably expressing recombinant human DOR, probe [3H]-DADLE.
Series [13] has as its target Histamine H1 receptor (Homo sapiens, UniProt P35367). As to the kind of experiment: Displacement of [3H]-pyrilamine from human histamine H1 receptor expressed in stable HEK cell membranes at 10 uM after 90 mins by microbeta scintillation counting method relative to control. Conditions: probe [3H]-pyrilamine.
Series [14] deals with kappa opioid receptor (KOR) (Homo sapiens, UniProt P41145). As to the kind of experiment: Displacement of [3H]-U69593 from KOR (unknown origin) at 10 uM measured after 90 mins by microbeta scintillation counting method relative to control. Conditions: probe [3H]-U69593.
Series [15] concerns the target muscarinic M2 receptor (Homo sapiens, UniProt P08172). As to the kind of experiment: Displacement of [3H]-QNB/[3H]-NMS from human muscarinic M2 receptor expressed in stable CHO cell membranes at 10 uM after 90 mins by microbeta scintillation counting method relative to control. Conditions: probe [3H]-QNB/[3H]-NMS.
The target of series [16] is muscarinic M3 receptor (Homo sapiens, UniProt P20309). The series can be described thus: Displacement of [3H]-QNB/[3H]-NMS from human muscarinic M3 receptor expressed in stable CHO cell membranes at 10 uM after 90 mins by microbeta scintillation counting method relative to control. Particulars: probe [3H]-QNB/[3H]-NMS.
Series [17] addresses noradrenaline transporter (NET) (Homo sapiens, UniProt P23975). As to the kind of experiment: Displacement of [3H]-Nisoxetine from human NET receptor expressed in stable HEK cell membranes at 10 uM after 90 mins by microbeta scintillation counting method relative to control. Particulars: stable HEK cell membranes expressing human NET, probe [3H]-Nisoxetine.
Series [18] addresses serotonin transporter (SERT) (Homo sapiens, UniProt P31645). As to the kind of experiment: Displacement of [3H]-citalopram from human SERT receptor expressed in stable HEK cell membranes at 10 uM after 90 mins by microbeta scintillation counting method relative to control. Particulars: stable HEK cell membranes expressing human SERT, probe [3H]-citalopram.
Series [19] concerns the target sigma1 receptor (Homo sapiens, UniProt Q99720). The series can be described thus: Displacement of [3H]-pentazocine from sigma1 receptor (unknown origin) at 10 uM after 90 mins by microbeta scintillation counting method relative to control. Conditions: probe [3H]-pentazocine.
For series [20], the target named is dopamine D1 receptor (Homo sapiens, UniProt P21728). The series can be described thus: in vitro. Conditions: probe [3H]-SCH23390.
For series [21], the target named is 5-hydroxytryptamine receptor 2C (Homo sapiens) (UniProt P28335). The series can be described thus: Displacement of [3H]-Mesulergine from recombinant human 5HT2C receptor expressed in HEK cell membranes at 10 uM measured after 90 mins by microbeta scintillation counting method relative to control. Conditions: probe [3H]-Mesulergine.

One may read the Ki as a dissociation constant, usually derived from enzyme kinetics or from competition with a known ligand. The inhibition is how much of the control response was suppressed. Consider `CCCN(CC[C@]1(O)C[C@H](NC(=O)c2ccc3ccccc3c2)C1)[C@H]1CCc2nc(N)sc2C1`, for which the Ki in series [1] (read-out: Ki) stood at 1180 nM; in series [2] (read-out: Ki) it was 2300 nM; in series [3] (read-out: Ki) it was 745 nM. Further, the inhibition at […], 10 µM in series [4] was above 50%; in [5], above 50%; in series [6] it was above 50%; in series [7], below 50%; in [8], above 50%; in series [9], above 50%. The inhibition at […], 10 µM in series [10] is above 50%; in series [11] it was above 50%; in series [12] it was below 50%; in series [13], above 50%; in series [14], above 50%; in [15], below 50%. The inhibition at […], 10 µM in [16] is below 50%; in [17], above 50%; in [18], above 50%; in series [19] it was above 50%; in series [20], below 50%; in series [21], above 50%.

For the compound `CCCN[C@H]1CCc2nc(N)sc2C1` [PRAMIPEXOLE], the Ki result in series [1], in series [2] (cho) and in series [3] was “Not Active” throughout. For the same compound, the inhibition at […], 10 µM in [4] was above 50%; in [5] it was below 50%; in series [6] it was below 50%; in [7] it was above 50%; in series [8], above 50%; in series [9], below 50%. In addition, the inhibition at […], 10 µM is above 50% in [10]; below 50% in series [11]; above 50% in [12]; below 50% in [13]; below 50% in [14]; above 50% in series [15]. The inhibition at […], 10 µM was above 50% in series [16]; below 50% in series [17]; below 50% in series [18]; above 50% in [19]; above 50% in [20]; below 50% in series [21].
